The numbers were not newly measured in patent US20240130937A1, “ORAL CARE COMPOSITION” (LACER, S.A., priority 2019, published 2024), which cites them from elsewhere.

The conditions of this series: at 25° C.

The structures appear in SMILES notation.

For `[Cl-].[Cl-].[Zn+2]` [zinc chloride], the solubility in water was 4320 mg/mL.
